Data taken from ChEMBL document CHEMBL3046434, “cAMP-dependent phosphodiesterase inhibition and SAR studies on novel 6,8-disubstituted 2-phenyl-3-(substituted benzothiazole-2-yl)-4[3H]-quinazolinone” (Med Chem Res, 2009).

Biological target: T1, PDE7B protein (Bos taurus) (UniProt A6QP37)
T1 sequence (whole entry): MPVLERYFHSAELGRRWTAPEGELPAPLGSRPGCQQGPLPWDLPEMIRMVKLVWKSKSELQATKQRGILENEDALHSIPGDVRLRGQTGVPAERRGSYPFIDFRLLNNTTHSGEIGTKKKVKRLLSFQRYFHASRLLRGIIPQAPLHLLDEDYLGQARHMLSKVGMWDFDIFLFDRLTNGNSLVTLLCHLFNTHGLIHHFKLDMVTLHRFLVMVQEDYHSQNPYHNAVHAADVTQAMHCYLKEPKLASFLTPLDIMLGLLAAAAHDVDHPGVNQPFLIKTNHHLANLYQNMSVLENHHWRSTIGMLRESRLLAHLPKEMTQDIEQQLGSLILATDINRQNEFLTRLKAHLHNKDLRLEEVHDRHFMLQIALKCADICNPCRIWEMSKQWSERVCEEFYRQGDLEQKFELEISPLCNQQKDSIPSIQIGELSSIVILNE
Assay: Inhibition of Bos taurus (bovine) heart cAMP-dependent phosphodiesterase assessed as inhibition of cyclic AMP to 5' AMP after 20 min by spectrophotometry relative to theophylline

SMILES	Ratio
O=c1c2ccccc2nc(-c2ccccc2)n1-c1nc2cc(Cl)ccc2s1	1.21
COc1ccc2nc(-n3c(-c4ccccc4)nc4ccccc4c3=O)sc2c1	1.35
CCOc1cccc2sc(-n3c(-c4ccccc4)nc4c(Br)cc(Br)cc4c3=O)nc12	1.21
O=c1c2cc(Br)cc(Br)c2nc(-c2ccccc2)n1-c1nc2ccc([N+](=O)[O-])cc2s1	0.869
Cn1c(=O)c2[nH]cnc2n(C)c1=O	1
CCOc1cccc2sc(-n3c(-c4ccccc4)nc4ccccc4c3=O)nc12	1.38
Cc1cccc2sc(-n3c(-c4ccccc4)nc4c(Br)cc(Br)cc4c3=O)nc12	1.14
Cc1ccc2sc(-n3c(-c4ccccc4)nc4c(Br)cc(Br)cc4c3=O)nc2c1	1.13
CCOc1ccc2nc(-n3c(-c4ccccc4)nc4c(Br)cc(Br)cc4c3=O)sc2c1	1.19
Cc1ccc2sc(-n3c(-c4ccccc4)nc4ccccc4c3=O)nc2c1	1.29
O=c1c2cc(Br)cc(Br)c2nc(-c2ccccc2)n1-c1nc2ccccc2s1	1.08
O=c1c2ccccc2nc(-c2ccccc2)n1-c1nc2ccc([N+](=O)[O-])cc2s1	1.47
CCOc1ccc2sc(-n3c(-c4ccccc4)nc4c(Br)cc(Br)cc4c3=O)nc2c1	1.22
CCOc1ccc2nc(-n3c(-c4ccccc4)nc4ccccc4c3=O)sc2c1	1.38
Cc1cc(C)c2nc(-n3c(-c4ccccc4)nc4c(Br)cc(Br)cc4c3=O)sc2c1	1.17
COc1ccc2sc(-n3c(-c4ccccc4)nc4ccccc4c3=O)nc2c1	1.34
O=c1c2cc(Br)cc(Br)c2nc(-c2ccccc2)n1-c1nc2ccc(Br)cc2s1	0.927
O=c1c2cc(Br)cc(Br)c2nc(-c2ccccc2)n1-c1nc2cc(Cl)ccc2s1	0.844
COc1cccc2sc(-n3c(-c4ccccc4)nc4c(Br)cc(Br)cc4c3=O)nc12	1.18
Cc1cccc2sc(-n3c(-c4ccccc4)nc4ccccc4c3=O)nc12	1.27
COc1cccc2sc(-n3c(-c4ccccc4)nc4ccccc4c3=O)nc12	1.33
O=c1c2ccccc2nc(-c2ccccc2)n1-c1nc2ccc(Br)cc2s1	1.28
Cc1cc(C)c2nc(-n3c(-c4ccccc4)nc4ccccc4c3=O)sc2c1	1.35
COc1ccc2sc(-n3c(-c4ccccc4)nc4c(Br)cc(Br)cc4c3=O)nc2c1	1.18
O=c1c2ccccc2nc(-c2ccccc2)n1-c1nc2ccccc2s1	1.22
COc1ccc2nc(-n3c(-c4ccccc4)nc4c(Br)cc(Br)cc4c3=O)sc2c1	1.2
CCOc1ccc2sc(-n3c(-c4ccccc4)nc4ccccc4c3=O)nc2c1	1.41
